Results reported in a melting point compilation (Tetko et al.; mined from patent text by program, amines drawn as free bases though some values may be those of a salt).

SMILES	melting point [°C]
CC(C)OC(=O)c1cc(O)cc2cc(-c3ccc(O)cc3)oc12	> 250
CNC(=NS(=O)(=O)c1ccc(C(F)(F)F)cc1)N1CC(c2ccccc2)C(c2ccc(Cl)cc2)=N1 (single isomer, unassigned; (-))	157 to 160
CC(C)n1nc(-c2sc(NC(=O)c3ccc(CN4CCOCC4)cc3)nc2-c2ccccc2)ccc1=O	222 to 224
CC1=C(Cc2ccc(C(C)C)cc2)C(=O)C2C=CC=CC2C1=O (stereo unspecified)	64 to 65
CN1C(=O)CC[C@]2(C)c3ccc(-c4ccc(S(C)(=O)=O)cc4)cc3CC[C@@H]12	229
O=C(NC1CCSc2cc(C(=O)O)ccc21)OCc1ccccc1 (stereo unspecified)	202 to 205
CN(C)c1ccc(C(c2ccccc2)c2c(C(=O)O)[nH]c3ccccc23)cc1 (stereo unspecified)	72 to 78
CCOC(=O)COc1cccc2c1CCc1sc(SCC(c3ccccc3)c3ccccc3)nc1-2	92 to 93
Cc1cc(C)nc(NC(=O)Cc2ccc(Br)s2)c1	87
CSc1onc(-c2ccccc2)c1-c1ccc(S(N)(=O)=O)cc1	135 to 137
CCCN(CCC)C(=O)CNc1nc(-c2ccccc2)ncc1CO	167 to 168
CCOC(=O)/C=C(\c1ccc(F)cc1)c1cc(OC)c(OC)c(OC)c1	133 to 135
CCCCCC#CCC(CC#CCCCCC)(C(=O)O)S(=O)(=O)c1ccc(OC)cc1	61
O=C(O)C(=O)c1cnsn1	130 to 133
CON=C(c1ccccc1OCc1ccc(Cl)cc1)n1ccnc1	92.5 to 93.5
Cc1nc2sc(Br)cc2c(=O)n1-c1ccccc1Cl	164 to 166
Cc1ccc(NC(=S)NCc2ccc3c(c2)CN(C2CCC(=O)NC2=O)C3=O)cc1C(F)(F)F (stereo unspecified)	238 to 240
COC(=O)C1=C(C)Nc2nc(N3CCOCC3)nc(N3CCOCC3)c2C1c1cccc([N+](=O)[O-])c1 (stereo unspecified)	165
CCCn1nc2c(N)nc3ccccc3c2c1NCCC1CCN(C(=O)NC(C)C)CC1	168 to 170
O=C(NO)c1ccc2c(c1)CCN(C(=O)NCCOc1ccccc1)C2	120 to 123

SMILES	melting point [°C]
CCOC(=O)c1cn(CCO)c2nc(N3CCN(C)CC3)ncc2c1=O	197 to 199
CC(=O)OCC1SC(Oc2cc(C)cc(O)c2C(C)=O)C(OC(C)=O)C(OC(C)=O)C1OC(C)=O (stereo unspecified)	162 to 164
COc1ccccc1-n1c(-c2cc(-c3ccccc3)c(N3CCOCC3)s2)nc2ccccc2c1=O	152 to 154
CCCc1c(OCc2cccn3c(=O)c(C#N)cnc23)ccc(C(C)=O)c1O	233 to 234
Nc1nc(N)nc(C2CCC(c3nc(N)nc(N)n3)CC2)n1 (stereo unspecified)	317 to 321
CS(=O)(=O)NC1CC(N)(C(=O)O)C2C(C(=O)O)C12 (stereo unspecified)	> 275
Cc1ccc(C(=O)c2ccccc2F)cc1	73 to 74
O=C(O)[C@H]1CC[C@H](Nc2ncc3ncnc(Nc4ccc(F)c(Cl)c4)c3n2)CC1	> 290
CNC(=O)C(=NO)c1ccccc1CO	128 to 131
FC(F)(F)c1cccc(-c2cc(C(F)(F)F)n3ncc(-c4ccncc4)c3n2)c1	241
O=C(O)COc1cc(Cl)ccc1C(=O)NCc1cccc(C(F)(F)F)c1	179 to 181
CC(C)(Cc1cc2c(OCc3ccc4ccccc4n3)cccc2n1Cc1ccc(Cl)cc1)C(=O)O	158 to 160
CCCCCCCCOc1ccc(-c2cnc(-c3ccc(O)cc3)nc2)cc1	137
Cc1ccccc1-c1nn(C(C)(C)C(=O)N(C)C)cc1C	145 to 147
CC(C)[C@H](OCc1c(F)cccc1F)[C@H]1[C@H]([N+](=O)[O-])[C@H](c2ccccc2)N[C@@H]1C(=O)NCC(=O)O	80 to 81
CC(C)COC(=O)Nc1cc(F)c(C2=CCSCC2)c(F)c1	136 to 137
O=C1CCC(N2Cc3c(OCc4cccc(CN5CCN(S(=O)(=O)C(F)(F)F)CC5)c4)cccc3C2=O)C(=O)N1 (stereo unspecified)	150 to 152
CC(C)(C)CC(C)(C)NSc1nc2ccccc2s1	104
N#CN1C2CCC1CC(c1n[nH]c3cc(F)ccc13)C2 (stereo unspecified)	182 to 184
COc1cccc(CCC(=O)c2c[nH]cn2)c1OC	120 to 125

SMILES	melting point [°C]
COc1nnc2n1C=Cc1ccccc1C2C (stereo unspecified)	101 to 102
CCC(C)(Cc1c[nH]c2ccccc12)[N+](=O)[O-] (stereo unspecified)	79.5 to 80
O=C(Nc1cc(Cl)ccc1C(=O)O)NS(=O)(=O)c1ccc(OCCN2CCN(c3ccccc3)CC2)cc1	177 to 179
CC(C)c1ccccc1SC1=C(O)CC(CCc2ccccc2)(c2ccccc2)OC1=O (stereo unspecified)	66 to 67
COC(=O)N1CCCC2(Cc3ccc(Br)cc3)C(=O)N(c3cc(Cl)nc(Cl)c3)C(=O)N12 (stereo unspecified)	81
COC(=O)C1CCC(C)(C(=O)c2ccc(OC)cc2OC)C1(C)C (stereo unspecified)	108
Cc1c(F)cc(C(=O)NC(C)C(C)C)cc1-c1ccc(C(=O)NCC(C)(C)C)cc1C(=O)Nc1nccs1 (stereo unspecified)	234 to 239
Cc1ccc2ncnc(N3CCc4ccc(Cl)cc43)c2c1	138 to 141
CCCCCCCCCCCCCCOc1ccc(O)c(C(=O)OC)c1	49 to 53
CN1Cc2c(-c3noc(CN4CCCCC4)n3)ncn2-c2ccccc2C1=O	167 to 168
COc1nc2ccccn2c(=O)c1-c1ccc(NC2CCN(C(=O)OC(C)(C)C)C2)cc1 (stereo unspecified)	102 to 104
N#CC(Br)c1ccc(Cl)cc1 (stereo unspecified)	46 to 49
COc1ccc(-c2csc(C(=O)O)n2)cc1OC	105 to 106
CC=COc1cc(N)c(Cl)cc1C(=O)O	136 to 137
S=C=Nc1ccc(-c2nc(-c3ccco3)no2)cc1	136 to 137
CCOC(=O)c1c2ccc(Cl)cc2c(-c2ccccc2)n1CCCN(C)c1ccccc1	108 to 110
CCCc1cccc(CNC(=O)c2nc3scc(COCc4ccc(C(=O)O)cc4)c3c(=O)[nH]2)c1	235 to 237
CP1(=O)c2ccccc2CN1c1ccccc1 (stereo unspecified)	94 to 97
CSC(C)=NOC(=O)N(C)SCCSN(C)C(=O)ON=C(SC)C(=O)N(C)C	102 to 106
CCOC(=O)c1cn(C2CCCO2)c(=O)[nH]c1=O (stereo unspecified)	125

Further lines, results first:

melting point [°C]	SMILES
111 to 113	O=C(Nc1ccccc1N1CCCCC1)c1ccncc1
169 to 172	COc1ccccc1N(CN1C(=O)CN(C)C1=O)C(C)=O
175 to 178	O=C(O)c1ccc(C=C(C(=O)C2CC2)C(=O)C2CC2)cc1
121 to 122	COCCN1CCN(CCc2ccc(Nc3ncc4c(n3)-c3ccccc3C(c3ccc(Cl)c(Cl)c3)C4)cc2)CC1 (stereo unspecified)
127 to 128	CCN(CC)CCC1CCCN1CCNC(=O)N1c2ccccc2C(=O)Nc2cccnc21 (stereo unspecified)
152 to 156	O=C(NCCCO)c1cc2ccccc2[nH]1
127 to 129	CCN(C)c1ccc2c(c1)CNC2=O
92	COC(=O)c1c[nH]c(Cl)c1
126 to 129	CCc1c(C(C)C)nc(C(C)C)c(CO)c1-c1ccc(F)cc1
128 to 130	CSc1nc(O)nn1C
66 to 68	CNn1c(SC)nnc(C(C)C2CC2)c1=O (stereo unspecified)
205 to 206	CCOC(=O)C1=C(C)NN=C(C(=O)OC)C1c1ccc([N+](=O)[O-])cc1 (stereo unspecified)
130 to 136	O=Cc1c[nH]c(Cc2ccccc2)n1
126 to 129	Fc1ccc(-n2c3c(c4cc(F)ccc42)CNCC3)cc1
118 to 120	CCOC(=O)C1=C(C)NC(c2cscn2)=NC1c1cccc(F)c1 (stereo unspecified)
191 to 198	CN(C)CC/C=C/c1ccc2c(Nc3ccc(Sc4nccn4C)c(Cl)c3)c(C#N)cnc2c1
230 to 232	Cc1cc(C)nc(-n2ncnc2N)n1
116	O=c1c2cc(Oc3ccc(Cl)cc3)ccc2ccn1Cc1cccnc1
197 to 199	Cc1cc(OC/C=C/c2ccccc2)c(C)c(C)c1NC=O
95 to 96	O=Cc1cccc2ccc(F)cc12
218 to 220	COc1ccc2c(Cc3c(Cl)cncc3Cl)nnc(Nc3nccs3)c2c1

melting point [°C]	SMILES
96 to 98	CCOCN(C(=O)CCl)c1c(C)cccc1[N+](=O)[O-]
115	COC(=O)c1ccc(F)c2c1CC(N(CCCCc1c[nH]c3ccc(F)cc13)C1CCC1)CO2 (stereo unspecified)
94 to 96	CC(C)N1C(=O)c2cnc(Cl)cc2C1=O
240 to 249	O=C(O)Cn1cc(C(=O)c2ccn3c2CSC3c2cccnc2)c2ccc(-c3ccc(F)cc3)cc21 (stereo unspecified)
128 to 130	CN1CCN(C2c3ccccc3C=Cc3ccc(Br)cc32)CC1 (stereo unspecified)
210	O=C(O)c1cccc(N(C(c2ccccc2)c2ccccc2)n2cc(C3c4ccccc4C=Cc4ccccc43)c(=S)[nH]c2=O)c1
139 to 141	Cc1nc(-n2cc(Cc3ccccc3)nn2)sc1C(=O)NCc1ccccc1
174	CCOC(=O)c1nccn1C1Sc2ccccc2C1=O (stereo unspecified)
> 200	Cc1nc(N2CCc3ccsc3CC2)c([N+](=O)[O-])c(=O)[nH]1
123	CN(C)S(=O)(=O)N(C)c1cccc2cc(-c3nccs3)[nH]c12
110 to 112	NC(=O)CCCOc1cccc(CCNS(=O)(=O)c2ccc(Cl)cc2)c1
261 to 263	NC(=O)Nc1nc2n(n1)Cc1ccccc1-2
109 to 111	CCOC(OCC)c1[nH]c(C2CC2)nc(=O)c1Cl
184 to 190	CC(C)(C)OC(=O)c1nc(-c2cccc3ccccc23)[nH]c1-c1ccncc1
123 to 125	CCCc1c(OCC(O)COc2cccc(N)c2C#N)ccc(C(C)=O)c1O (stereo unspecified)
119 to 120	CCS(=O)(=O)Nc1ccc([N+](=O)[O-])cc1SC1CCCCC1
105 to 107	CCCCCCCCCCCCc1ccc(C(OC(C)=O)C(COC(C)=O)NC(C)=O)s1 (stereo unspecified)
181 to 182	COC(=O)c1ccc(OCC(N)=O)c(N)c1
64.3 to 65	CCC(C)COc1ccc(N=Nc2ccc(F)cc2)cc1 (stereo unspecified)
153	O=c1[nH]c2cc(C(F)(F)F)ccc2n1CCCN1CCN(C(c2ccccc2)c2ccccc2)CC1
